Patent US9764037B2, “Conjugate compounds” (Victoria Link Limited, priority 2012, dated 2017)

Experiments:
[1] = system: splenic dendritic cells; assay: Impact of prior vaccination on response to free α-GalCer two weeks later, CD86 on splenic dendritic cells (FIGS. 6, 7); assay type: in vivo, mice; conditions: 200 ng α-GalCer intravenously two weeks after vaccination, FIGS. 6 and 7
Protocol: Flow cytometry is used to assess CD86 upregulation on splenic dendritic cells after intravenous injection of 200 ng α-GalCer, which is used as a readout of NKT cell activity. Mean fluorescence index (MFI)±SEM are presented. […] Each dot represents a different animal; mean per treatment group (n=3)±SEM are presented. ***p<0.001, **p<0.01, * p<0.05.

[2] = HPLC-ESI-MSMS quantification of α-GalCer in formulated test samples; assay type: physicochemical; conditions: level of α-GalCer in freshly reconstituted formulated samples
Protocol: Compounds of the invention are formulated analogously to reported methods for α-GalCer. Briefly, solubilisation of α-GalCer is based on excipient proportions described by Giaccone et al. (Giaccone, Punt et al. 2002). Thus, 100 μL of a 10 mg/mL solution of α-GalCer or a compound of the invention in 9:1 THF/MeOH is added to 1.78 mL of an aqueous solution of Tween 20 (15.9 mg), sucrose (177 mg) and L-histidine (23.8 mg). This homogeneous mixture is freeze dried and the resulting foam is stored under Ar at −18° C. This material is reconstituted with 1.0 mL of PBS or water prior to serial dilutions in PBS to achieve final injectable solutions of α-GalCer or compounds of the invention.
Quantification of the amount of α-GalCer in various test samples of compounds of the invention is made by HPLC-ESI-MSMS analysis using a Waters 2795 HPLC and a Waters Q-TOF Premier™ Tandem Mass Spectrometer. The chromatography used a Phenomenex Kinetex C18 […] 3.0×50 mm column eluting with isocratic methanol containing 10 mM ammonium formate+0.5% formic acid at a flow rate of 0.2 mL/min. α-GalCer is monitored by selective […] monitoring of 898.7 to 696.7 Da. The estimate of amount of α-GalCer is made by comparison of ion count integrals to a standard curve run on the same day or by comparison to test samples spiked with a known amount of α-GalCer. The level of α-GalCer is determined on freshly reconstituted formulated samples unless otherwise stated

[3] = system: SIINFEKL-specific T cells; assay: Analysis of peptide-specific T cell proliferation in vivo (FIGS. 2, 5, 8, 9); parameters: species or system mice
Protocol: (SEQ ID NO:262) peptide in each case. To increase sensitivity of the assay, all mice are initially donated a cohort of 10,000 […] (SEQ ID NO:262)-specific T cells from a transgenic mouse encoding a T cell receptor for this antigen (OT-1 mice) by intravenous injection of the cells one day before the vaccines are administered. […] It is therefore possible to enumerate […] (SEQ ID NO:262)-specific T cells in blood by flow cytometry using antibodies for CD45.1 together with antibodies for the transgenic T cell receptor (Vα2). […] Control animals are injected with the diluent phosphate-buffered saline (PBS). […] Each dot represents a different animal; mean per treatment group±SEM are presented.
Accumulation of antigen-specific T cells in the blood in response to vaccination is measured 7 days later, as described for FIG. 2.
Pooled lymph node cell suspensions are prepared from animals of a cross between OT-I mice, which express a transgenic T cell receptor (TCR) specific for the ovalbumin epitope […] in the context of H-2K^b molecules, and B6.SJL-Ptprc^a Pepc^b/BoyJ mice, which are congenic with C57BL/6 mice for the CD45.1^+ marker. The samples are enriched for CD8^+ cells using antibody coated magnetic beads (Miltenyi), and then transferred into recipient mice (1×10^4 per mouse). Groups of recipient animals (n=5) are immunized with compounds of the invention one day later. Doses are chosen to provide equivalent molar values of […] peptide. Control animals receive phosphate-buffered saline. After seven days, blood samples are collected from the lateral tail vein and stained directly ex vivo with antibodies for TCR Vα2, CD45.1 and CD8 to detect the […]-specific CD8^+ T cells by flow cytometry.

[4] = system: CD11c+ dendritic cells; assay: CD86 expression on splenic dendritic cells after intravenous injection (FIG. 1); assay type: in vivo, C57BL/6 mice; conditions: 0.571 nmol intravenously, spleens 20 h later
Protocol: Groups of C57BL/6 mice (n=3) are injected intravenously with 0.571 nmol of the indicated compounds and then the spleens removed 20 h later for the analysis of CD86 expression on CD11c^+ dendritic cells by antibody labelling and flow cytometry. Mean fluorescence index (MFI)±SEM are presented.
Antibody staining and flow cytometry is used to examine the expression of maturation markers on dendritic cells in the spleen following injection of compounds of the invention. Splenocyte preparations are prepared by gentle teasing of splenic tissue through gauze in Iscove's Modified Dulbecco's Medium with 2 mM glutamine, 1% penicillin-streptomycin, 5×10^-5 M 2-mercapto-ethanol and 5% fetal bovine serum (all Invitrogen, Auckland, New Zealand), followed by lysis of red blood cells with RBC lysis buffer (Puregene, Gentra Systems, Minneapolis, Minn., USA). Antibody staining is performed in PBS 2% fetal bovine serum and 0.01% sodium azide. The anti-FcgRII monoclonal antibody 2.4G2 is used at […] to inhibit non-specific staining. Monoclonal antibodies (all BD Biosciences Pharmingen, San Jose, Calif., USA) are used to examine expression of the maturation markers CD40, CD80 and CD86 on CD11c+ dendritic cells.

[5] = system: leukocyte infiltration into the lungs; assay: Allergic airway inflammation in OVA-sensitized animals (FIG. 13); assay type: in vivo, mice; conditions: three days after challenge
Protocol: Control animals receive intranasal PBS instead of challenge, and positive control groups receive challenge but no treatment (“OVA”). The prodrug vaccines and admixed α-GalCer and peptide are administered seven days before challenge […], while the in vitro activated OVA257-specific CTL are administered one day before challenge (day 23). The total numbers of cells in BAL fluid (left), and numbers of eosinophils (right), are evaluated three days after challenge by flow cytometry.

[6] = Giaccone, Punt et al. 2002; cited from earlier work
[7] = Ebensen, Link et al. 2007; cited from earlier work
[8] = system: T-cell; conditions: Parekh, Wilson et al. 2005; cited from earlier work

Row | Molecule | DC activation (CD86 upregulation) on administration of free α-GalCer after earlier vaccination [1] | α-GalCer/injection [2] [ng] | T cell expansion on repeated administration ([3]; FIG. 8) | T cell response on boosting after priming with SIINFEKL with α-GalCer (unconjugated) ([3]; boost day 14 or 35, read day 21 or 42, blood, FIG. 9) | dependence of the T cell response on langerin+ CD8α+ DCs ([3]; depletion by diphtheria toxin, FIG. 2) | population of SIINFEKL-specific T cells (Vα2+ CD45.1+) in blood ([3]; intravenous vaccination, compared with admixed α-GalCer and peptide, lang-EGFPDTR mice, FIG. 2) | activation of DCs (expression of activation marker CD86 on splenic DCs) [4] | leukocyte infiltration into the lungs (total number of cells in BAL fluid) ([5]; vaccination of sensitized mice one week before challenge) | infiltration of eosinophils (BAL fluid) ([5]; vaccination seven days before challenge) | efficacy in human clinical trials [6] | solubility [7] | T-cell anergy [8]
1 | CCCCCCCCCCCCCCCCCCCCCCCCCC(=O)OC(CCCCCCCCCCCCCC)C(O)C(COC1OC(CO)C(O)C(O)C1O)NC(=O)OCc1ccc(NC(=O)C(CCCNC(N)=O)NC(=O)C(NC(=O)OCc2ccccc2)C(C)C)cc1 [CN165, (2S,3S,4R)-1-O-α-D-Galactopyranosyl-4-O-hexacosanoyl-2-(N-Cbz-Val-Cit-4-aminobenzyloxycarbonylamino) octadecane-1,3,4-triol] | some DC activation | 0.028 |  |  |  |  |  |  |  |  |  | 
2 | (2S,3S,4R)-1-O-α-D-Galactopyranosyl-4-hexacosanoyl-2-((4-(2-(FFRKSIINFEKL)-2-oxoethoxy)imino)pentanoyloxy)methoxycarbonylamino) octadecane-1,3,4-triol [CN152] | some DC activation | 0.05 | induces further T cell expansion | induces measurable T cell responses | dependent on langerin^+ CD8α^+ DCs | larger population of peptide-specific T cells | potently activates DCs | significantly suppress leukocyte infiltration into the lungs | superior to both CN178 and admixed groups |  |  | 
3 | CCCCCCCCCCCCCCCCCCCCCCCCCC(=O)OC(CCCCCCCCCCCCCC)C(O)C(COC1OC(CO)C(O)C(O)C1O)NC(=O)OCc1ccc(NC(=O)C(CCCCN)NC(=O)C(Cc2ccccc2)NC(=O)OCc2ccccc2)cc1 [CN166, (2S,3S,4R)-1-O-α-D-Galactopyranosyl-4-O-hexacosanoyl-2-(N-Cbz-Phe-Lys-4-aminobenzyloxycarbonylamino) octadecane-1,3,4-triol] | some DC activation | 0.136 |  |  |  |  |  |  |  |  |  | 
4 | CCCCCCCCCCCCCCCCCCCCCCCCCC(=O)N[C@@H](CO[C@H]1O[C@H](CO)[C@H](O)[C@H](O)[C@H]1O)[C@H](O)[C@H](O)CCCCCCCCCCCCCC [α-GalCer, α-Galactosylceramide] | no measurable activation of DCs |  |  |  |  |  |  |  |  | lack of efficacy | poor solubility | promotion of T-cell anergy
